Structures are written as SMILES. Residues, ends and D or L forms follow the SMILES beside them. *: point of attachment. Heptanoyl = CCCCCCC(=O)*; Hexanoyl = CCCCCC(=O)* Some results are limits rather than exact numbers.

Data set [1] relates to E. coli (K-12 MG1655). Format: cell-based. The settings on record: Table 6; K-12 MG1655; checkerboard assay, 50:50 PBS/LB-broth, 200 µL.
The subject of a further data set is S. aureus (ATCC 29213). In kind it is cell-based. The note with it: Table 6; ATCC 29213; checkerboard assay, 50:50 PBS/LB-broth, 200 µL. The method, then: The broth microdilution method was used to determine minimal inhibitory concentration (MIC) and minimal bactericidal concentration (MBC), in accordance with the EUCAST standards for the broth microdilution method. […] In brief, two-fold serial dilutions of the lipopeptides were performed in a 96-well plate in PBS, with a final volume of 100 µl per well, after which 100 µl of LB-broth media containing approximately 5 × 10^5 CFU/ml of bacteria was added to each well. The plate was then incubated for 20 h in 37 °C on a shaker (400 rpm). The effect of lipopeptide-antibiotic combinations was investigated by performing checkerboard assays. The assays were performed in accordance with the MIC and MBC tests conducted above, but with horizontal and longitudinal two-fold serial dilutions of the tested compounds. […] The fractional inhibitory concentration (FIC) and fractional bactericidal concentration (FBC) were calculated by the equation (MIC or MBC of peptide in combination/MIC or MBC of peptide alone) + (MIC or MBC of antibiotic in combination/MIC or MBC of antibiotic alone). […] All experiments were repeated at least three times.

Data set [2] has as its system E. coli (K-12 MG1655). The note with it: Table 3; K-12 MG1655; broth microdilution, 50:50 PBS/LB-broth, 200 µL, 20 h, 37 °C. As for the experimental part:
(§1) S. aureus (ATCC 29213, MSSA, ATCC, Manassas, VA), E. coli (K-12 MG1655) and clinical isolates of S. aureus, E. coli, E. faecium, K. pneumoniae, A. baumannii, P. aeruginosa and E. cloacae obtained from the Department of Laboratory Medicine at Örebro University Hospital were streaked on Luria–Bertani (LB) agar plates and incubated at 37 °C overnight. Single colonies were inoculated into 5 ml of LB broth and incubated on a shaker (400 rpm) at 37 °C overnight. The bacterial concentrations were determined by viable count and were adjusted to correlate with approximately 10^9 CFU/ml.
(§2) The broth microdilution method was used to determine minimal inhibitory concentration (MIC) and minimal bactericidal concentration (MBC), in accordance with the EUCAST standards for the broth microdilution method. Two-fold serial dilutions of the lipopeptides were used, and the final concentrations ranged from 0.19 to 100 µM. In brief, two-fold serial dilutions of the lipopeptides were performed in a 96-well plate in PBS, with a final volume of 100 µl per well, after which 100 µl of LB-broth media containing approximately 5 × 10^5 CFU/ml of bacteria was added to each well. The plate was then incubated for 20 h in 37 °C on a shaker (400 rpm). The effect of lipopeptide-antibiotic combinations was investigated by performing checkerboard assays. The assays were performed in accordance with the MIC and MBC tests conducted above, but with horizontal and longitudinal two-fold serial dilutions of the tested compounds. […] The fractional inhibitory concentration (FIC) and fractional bactericidal concentration (FBC) were calculated by the equation (MIC or MBC of peptide in combination/MIC or MBC of peptide alone) + (MIC or MBC of antibiotic in combination/MIC or MBC of antibiotic alone). Synergy was defined as FIC/FBC ≤ 0.5, additive when 0.5 < FIC/FBC ≤ 1, indifferent when 1 < FIC/FBC < 2 and antagonistic when FIC/FBC ≥ 2. All experiments were repeated at least three times.
(Broth dilution looks for growth in wells or tubes with falling amounts of substance.)

Data set [3] relates to S. aureus (ATCC 29213, MSSA). The note with it: ATCC 29213, 20 h. As for the experimental part: as §1, §2
A short description of data set [4]: Carboxyfluorescein release assay, mammalian liposome model. Format: biochemical. The note with it: 65:5:30 POPC:POPS:Chol. liposomes, 25 µM lipid, 10 mM PBS pH 7.4, 10^–5–10^2 µM peptide, 60 min, fluorescence, Hill fit, n = 3; read-out: EC50 Mammalial (concentration that triggers 50% CF release). The method, then:
(§3) Liposomes were prepared by thin-film hydration method. Lipids stock solutions (10 mg/ml in chloroform, Avanti Polar Lipids, Inc., Alabaster, United States) of the lipids 1-palmitoyl-2-oleoyl-sn-glycero-3-phosphocholine (POPC), 1-palmitoyl-2-oleoyl-sn-glycero-3-phospho-L-serine (POPS), 1-Hexadecanoyl-2-(9Z-Octadecenoyl)-sn-Glycero-3-Phosphoglycerol (POPG) and Cholesterol (Chol) were employed. Bacterial liposomes were prepared with a 75:25 ratio of POPC:POPG and mammalian liposomes were prepared with a 65:5:30 ratio of POPC:POPS:Chol. Lipid solutions were thoroughly homogenised, and the solvent was evaporated with the use of a dry N2 steam to yield a lipid cake. […] The lipid film was subsequently hydrated with a 5(6)-CF solution (50 mM CF, 10 mM PBS, 90 mM NaCl, pH 7.4). Following a 10 min incubation on orbital shaker (50 min^−1), the solution was vortexed for 60 s on medium speed. A mini extruder (Avanti Polar Lipids, Inc., United States) was employed and 21 extrusions were performed through a 0.1 µm filter membrane (Nuclepore track-etched hydrophilic membrane, Cytiva, Whatman, MA, United States), resulting in monodispersed unilamellar liposomes. Directly before use the liposomes were purified from unencapsulated CF by filtration through a gel filtration column (PD Minitrap G-25 column, Cytiva, United States), against PBS buffer (10 mM, pH 7.4).
(§4) Peptide and lipopeptide activity towards liposome models were evaluated using a carboxyfluorescein (CF) release assay. Liposomes were diluted in PBS (10 mM, pH 7.4) to a final lipid concentration of 25 µM and incubated with peptides (10^–5–10^2 µM) in a 96-well plate (n = 3). CF release was monitored using an Infinite M1000 PRO plate reader every 2.5 min for 1 h. Full (100%) CF release was obtained by addition of 1% Triton X-100 solution followed by 10 min incubation. CF release percentage was evaluated according to the formula 100 * (F − F0)/(FT − F0), where F indicates the instantaneous fluorescence, FT the total fluorescence and F0 the background fluorescence prior to peptide addition. Data were fitted to a Hill-1 curve using MATLAB R2019a (The MathWorks Inc., Natick, Massachusetts, United States) and the half maximum effective concentration (EC50) was extracted.

Data set [5] in a line: Carboxyfluorescein release assay, bacterial liposome model. Format: biochemical. The note with it: 75:25 POPC:POPG liposomes, 25 µM lipid, 10 mM PBS pH 7.4, 10^–5–10^2 µM peptide, 60 min, fluorescence, Hill fit, n = 3; read-out: EC50 Bacterial (concentration that triggers 50% CF release). The method, then: as §3, §4
The next data set deals with human erythrocytes. Briefly: Hemolytic activity. In kind it is cell-based. The settings on record: 15% suspension in PBS, 1 h, 37 °C, absorbance 540 nm, highest tested concentration 100 µM. The method, then:
The hemolytic activity of the lipopeptides was investigated by collecting blood from healthy volunteers in heparinized vacutainers. Briefly, the blood was centrifuged at 600 × g for 5 min and the erythrocyte pellet was washed three times in PBS. The cells were then suspended in PBS and added to 96-well plates (15% erythrocyte suspension/well), containing the lipopeptides with two-fold serial dilution. The plates were incubated for 1 h at 37 °C followed by centrifugation for 5 min at 900×g and absorbance measurement of the supernatants at 540 nm. Hemolytic activity (%) was calculated by subtracting the negative control from all values and normalization against the positive control (0.5% Triton X-100), that was set to 100%. All experiments, each in duplicate, were repeated three times.

For the compound `CO/N=C(\C(=O)N[C@@H]1C(=O)N2C(C(=O)O)=C(COC(C)=O)CS[C@H]12)c1csc(N)n1` [Cefotaxim], in the data set on E. coli (K-12 MG1655) [1], the “E. coli MBC, antibiotic alone” value is 0.5 mg/L and the “E. coli MIC, antibiotic alone” value came out at 0.5 mg/L.

With `O=C(O)c1cn(C2CC2)c2cc(N3CCNCC3)c(F)cc2c1=O` [Ciprofloxacin], in the data set with E. coli (K-12 MG1655) [1], the “E. coli MBC, antibiotic alone” value was determined as 0.125 mg/L and the “E. coli MIC, antibiotic alone” value came out at 0.125 mg/L. Moreover, in the data set with S. aureus (ATCC 29213), the “S. aureus MBC, antibiotic alone” value was determined as 0.25 mg/L and the “S. aureus MIC, antibiotic alone” value was determined as 0.25 mg/L.

With `CNC(C)C1CCC(N)C(OC2C(N)CC(N)C(OC3OCC(C)(O)C(NC)C3O)C2O)O1` (centres unmarked) [Gentamicin], in the data set with E. coli (K-12 MG1655) [1], the “E. coli MBC, antibiotic alone” value is 1 mg/L and the “E. coli MIC, antibiotic alone” value came out at 1 mg/L.

For `CCCCCC(=O)N[C@@H](CC(C)C)C(=O)NCC(=O)N[C@@H](CC(C)C)C(=O)N[C@@H](CCCCN)C(=O)N[C@@H](CC(C)C)C(=O)N[C@@H](CC(C)C)C(=O)N[C@@H](Cc1c[nH]c2ccccc12)C(=O)N[C@@H](CO)C(=O)N[C@@H](C)C(=O)N[C@@H](Cc1ccc(O)cc1)C(=O)N[C@@H](CCCCN)C(=O)N[C@@H](Cc1c[nH]cn1)C(=O)N[C@@H](CCCNC(=N)N)C(=O)N[C@@H](CCCCN)C(=O)N[C@H](C(=O)N[C@@H](CC(C)C)C(N)=O)[C@@H](C)O` [L-6-C6-Leu] (Hexanoyl-LGLKLLWSAYKHRKTL-NH2), in the data set with E. coli (K-12 MG1655) [2], the “E. coli MBC” value is 6.2 µM and the “E. coli MIC” value came to 6.2 µM. In data set [3], the “S. aureus MBC” value is listed as 3.1 µM and the “S. aureus MIC” value is on record as 1.5 µM. In addition, the EC50 in data set [4] came to 1.21 µM. Also, the EC50 in data set [5] came to 0.13 µM. Moreover, in the data set on human erythrocytes, the “HC, hemolytic concentration at 5% hemolytic activity” value (shortened to “HC … at 5% hemolytic activity”) was 60 µM.

For the compound `CCCCCC(=O)N[C@@H](CC(C)C)C(=O)NCC(=O)N[C@H](C(=O)N[C@@H](CCCCN)C(=O)N[C@H](C(=O)N[C@@H](CC(C)C)C(=O)N[C@@H](Cc1c[nH]c2ccccc12)C(=O)N[C@@H](CO)C(=O)N[C@@H](C)C(=O)N[C@@H](Cc1ccc(O)cc1)C(=O)N[C@@H](CCCCN)C(=O)N[C@@H](Cc1c[nH]cn1)C(=O)N[C@@H](CCCNC(=N)N)C(=O)N[C@@H](CCCCN)C(=O)N[C@H](C(=O)N[C@H](C(N)=O)[C@@H](C)CC)[C@@H](C)O)[C@@H](C)CC)[C@@H](C)CC` [L-6-C6] (Hexanoyl-LGIKILWSAYKHRKTI-NH2), in the data set with E. coli (K-12 MG1655) [2], the “E. coli MBC” value is 6.2 µM and the “E. coli MIC” value is recorded as 6.2 µM. In addition, in data set [3], the “S. aureus MBC” value was 6.2 µM and the “S. aureus MIC” value was found to be 3.1 µM. In addition, in data set [4], the EC50 is 3.57 µM. The EC50 in data set [5] was 0.16 µM. In addition, the “HC … at 5% hemolytic activity” value in the data set on human erythrocytes is listed as above 100 µM.

`CCCCCCC(=O)N[C@@H](CC(C)C)C(=O)NCC(=O)N[C@@H](CC(C)C)C(=O)N[C@@H](CCCCN)C(=O)N[C@@H](CC(C)C)C(=O)N[C@@H](CC(C)C)C(=O)N[C@@H](Cc1c[nH]c2ccccc12)C(=O)N[C@@H](CO)C(=O)N[C@@H](C)C(=O)N[C@@H](Cc1ccc(O)cc1)C(=O)N[C@@H](CCCCN)C(=O)N[C@@H](Cc1c[nH]cn1)C(=O)N[C@@H](CCCNC(=N)N)C(=O)N[C@@H](CCCCN)C(=O)N[C@H](C(=O)N[C@@H](CC(C)C)C(N)=O)[C@@H](C)O` [L-6-C7-Leu] (Heptanoyl-LGLKLLWSAYKHRKTL-NH2): in the data set on E. coli (K-12 MG1655) [2], the “E. coli MBC” value was 6.2 µM and the “E. coli MIC” value is given as 6.2 µM. Besides, in data set [3], the “S. aureus MBC” value is given as 1.5 µM and the “S. aureus MIC” value is recorded as 1.5 µM. In addition, in data set [4], the EC50 was 1.1 µM. The EC50 in data set [5] is 0.12 µM. The “HC … at 5% hemolytic activity” value in the data set with human erythrocytes was determined as 30 µM.

In the case of `CO[C@H]1/C=C/O[C@@]2(C)Oc3c(C)c(O)c4c(O)c(c(/C=N/N5CCN(C)CC5)c(O)c4c3C2=O)NC(=O)/C(C)=C\C=C\[C@H](C)[C@H](O)[C@@H](C)[C@@H](O)[C@@H](C)[C@H](OC(C)=O)[C@@H]1C` [Rifampicin], the “E. coli MBC, antibiotic alone” value in the data set on E. coli (K-12 MG1655) [1] is 100 mg/L. Moreover, in the data set with S. aureus (ATCC 29213), the “S. aureus MBC, antibiotic alone” value amounted to 0.062 mg/L and the “S. aureus MIC, antibiotic alone” value amounted to 0.062 mg/L.

Source of the values: publication PMC10011573, “Development of novel broad-spectrum antimicrobial lipopeptides derived from plantaricin NC8 β” (Scientific Reports, 2023).
